Test results: ChEMBL document CHEMBL1201862, “PubChem BioAssay data set” (2004)
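Grown in 96-well plates, cells were treated for 48 hours with each compound at five concentrations. Insufficient inhibition: endpoint recorded as highest concentration tested. GI50 = concentration required for 50% inhibition of growth.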 The source made the active and inactive calls. No stated cut-off is given here; in the data, active = GI50 up to about 1.1 µM and inactive = higher.

Experiments:
Assay in all cases: NCI-60 cell line screen, 48 h
Malme-3M = system: Malme-3M
CCRF-CEM = system: CCRF-CEM
HT-29 = system: HT-29
IGROV-1 = system: IGROV-1
KM12 = system: KM12
SK-MEL-5 = system: SK-MEL-5
PC-3 = system: PC-3
NCI-H460 = system: NCI-H460
T47D = system: T47D
DU-145 = system: DU-145
SNB-19 = system: SNB-19
M14 = system: M14
OVCAR-5 = system: OVCAR-5
OVCAR-8 = system: OVCAR-8
U-251 = system: U-251
SW-620 = system: SW-620
OVCAR-4 = system: OVCAR-4
RPMI-8226 = system: RPMI-8226
OVCAR-3 = system: OVCAR-3

Measured: GI50

CCNC(=S)N/N=C/c1cc([N+](=O)[O-])ccc1O
inactive: Malme-3M 26.5 µM | CCRF-CEM 4.47 µM | HT-29 41.8 µM | IGROV-1 22.4 µM | KM12 23.8 µM | SK-MEL-5 10.9 µM | PC-3 28.3 µM | NCI-H460 9.27 µM | T47D 19.9 µM | DU-145 83.4 µM | SNB-19 34.1 µM | M14 33.7 µM | OVCAR-5 > 100 µM | OVCAR-8 18 µM | U-251 16.9 µM | SW-620 40.5 µM | OVCAR-4 15.6 µM

COCO[C@@H]1C[C@H]2C(=O)N(COC)c3ccccc3C(=O)N2C1
inactive: Malme-3M > 100 µM | CCRF-CEM > 100 µM | HT-29 > 100 µM | IGROV-1 > 100 µM | KM12 > 100 µM | SK-MEL-5 > 100 µM | PC-3 > 100 µM | T47D > 100 µM | DU-145 > 100 µM | SNB-19 > 100 µM | M14 > 100 µM | OVCAR-5 > 100 µM | OVCAR-8 > 100 µM | U-251 > 100 µM | SW-620 > 100 µM | OVCAR-4 > 100 µM

CC1CCC/C1=C(/I)C(=O)c1ccccc1 (stereo not given)
inactive: Malme-3M 64.4 µM | CCRF-CEM 30.4 µM | RPMI-8226 55.3 µM | HT-29 48 µM | IGROV-1 > 100 µM | KM12 25.4 µM | SK-MEL-5 26.2 µM | PC-3 > 100 µM | NCI-H460 > 100 µM | T47D > 100 µM | DU-145 > 100 µM | SNB-19 > 100 µM | M14 59.3 µM | OVCAR-5 18.5 µM | OVCAR-8 > 100 µM | U-251 > 100 µM | SW-620 53.1 µM | OVCAR-4 85.7 µM

CC1(C)CC(=O)c2c(nc3c(ccc4ccccc43)c2-c2ccc(NC(=O)CCCCC(=O)Nc3ccc(-c4c5c(nc6c4ccc4ccccc46)CC(C)(C)CC5=O)cc3)cc2)C1
inactive: CCRF-CEM 20.7 µM | RPMI-8226 18.8 µM | HT-29 22.5 µM | IGROV-1 14 µM | KM12 20.7 µM | SK-MEL-5 32.1 µM | PC-3 27.4 µM | NCI-H460 27.7 µM | T47D 22.6 µM | DU-145 36.1 µM | SNB-19 69.2 µM | OVCAR-3 25.6 µM | M14 32.3 µM | OVCAR-5 30.9 µM | OVCAR-8 26.1 µM | U-251 28.4 µM | SW-620 38.6 µM

CCOC(=O)c1c(NC(=O)c2ccccc2)sc2c1CCC2
inactive: CCRF-CEM > 100 µM | RPMI-8226 > 100 µM | HT-29 > 100 µM | IGROV-1 > 100 µM | KM12 > 100 µM | SK-MEL-5 > 100 µM | PC-3 > 100 µM | NCI-H460 > 100 µM | T47D > 100 µM | DU-145 > 100 µM | SNB-19 > 100 µM | OVCAR-3 > 100 µM | M14 > 100 µM | OVCAR-5 > 100 µM | OVCAR-8 > 100 µM

O=C(CCCn1ccnc1[N+](=O)[O-])NCCn1ccnc1
inactive: Malme-3M > 100 µM | CCRF-CEM > 100 µM | HT-29 > 100 µM | IGROV-1 > 100 µM | KM12 > 100 µM | SK-MEL-5 > 100 µM | PC-3 > 100 µM | NCI-H460 > 100 µM | T47D > 100 µM | DU-145 > 100 µM | SNB-19 > 100 µM | OVCAR-3 > 100 µM | M14 > 100 µM | OVCAR-5 > 100 µM | OVCAR-8 > 100 µM | U-251 > 100 µM | SW-620 > 100 µM
